Measured values taken from US12396961B2, “Compounds and compositions for intracellular delivery of agents” (ModernaTX, Inc., priority 2015, dated 2025).
Entries after “also recorded” stand apart in the source; their conditions may differ. Values belong to the compound of their own block, whether it stands above or below them.

Tests used:
[1] = Encapsulation efficiency of RNA (QUANT-IT RIBOGREEN RNA assay); format: physicochemical
Description: The efficiency of encapsulation of a therapeutic and/or prophylactic agent describes the amount of therapeutic and/or prophylactic agent that is encapsulated or otherwise associated with a nanoparticle composition after preparation, relative to the initial amount provided. The encapsulation efficiency is desirably high (e.g., close to 100%). The encapsulation efficiency may be measured, for example, by comparing the amount of therapeutic and/or prophylactic agent in a solution containing the nanoparticle composition before and after breaking up the nanoparticle composition with one or more organic solvents or detergents. Fluorescence may be used to measure the amount of free therapeutic and/or prophylactic agent (e.g., RNA) in a solution. […]
For nanoparticle compositions including an RNA, a QUANT-IT™ RIBOGREEN® RNA assay (Invitrogen Corporation Carlsbad, CA) can be used to evaluate the encapsulation of an RNA by the nanoparticle composition. […] The fluorescence intensity can be measured using a fluorescence plate reader (Wallac Victor 1420 Multilablel Counter; Perkin Elmer, Waltham, MA) at an excitation wavelength of, for example, about 480 nm and an emission wavelength of, for example, about 520 nm. […]

[2] = Particle size and polydispersity index (Zetasizer Nano ZS); format: physicochemical; conditions: for PDI: DOPE 40:20:38.5:1.5, Luc mRNA
Method in brief: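 Particle size and polydispersity index were measured by dynamic light scattering on a Zetasizer Nano ZS in 1×PBS. Zeta potential was measured in 15 mM PBS.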

[3] = tested on: luciferase (Luc) mRNA expression; experiment: Luc expression (AUC) in CD-1 mice relative to MC3; format: in vivo; conditions: for Lipid/MC3 AUC CD-1 mice 0.5 mpk: Table 7b, Luc expression; for Lipid/MC3 Luc CD-1 (mice): Luc expression relative to MC3, CD-1 mice
Method in brief: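 CD-1 mice dosed at 0.5 mpk with nanoparticle compositions carrying luciferase mRNA; total light flux acquired by whole-body luminescent imaging 6 h after administration. Expression referenced to MC3-containing composition.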

[4] = tested on: LDLr mRNA / Luc expression; experiment: Expression (AUC) in LDLr−/− mice relative to KL22; format: in vivo; conditions: Table 7b
[5] = Lipid levels (clearance) in liver and spleen 48 hours after administration; format: in vivo, rats; conditions: rat liver, 48 h
Experimental: Formulations were administered intravenously to rats (n=3 or 6) at a dosage of 0.2 mg/kg or 0.5 mg/kg (mpk) and hEPO levels measured at 3, 6, and 24 hour time points. After the 48 hour time point, livers and spleens were harvested and frozen.
The amount of lipid in the liver and spleen 48 hours after administration of a nanoparticle composition was also measured. […] In contrast, approximately 60% of doses including MC3 or Compound 22 remained in the liver after 48 hours. Less than 3% of the dose remained in the spleen for each composition tested.

hEPO mRNA expression [6] = experiment: hEPO levels in non-human primates; format: in vivo
Experimental: FIG. 10 is a graph showing hEPO levels in non-human primates up to −50 h after administration of a nanoparticle composition containing Compound 4, compared to a composition containing MC3.
The tolerability and efficacy of nanoparticle compositions to non-human primates is evaluated in Cynomolgus monkeys. Monkeys are administered an optimized nanoparticle composition including an mRNA encoding hEPO once weekly for four weeks. The levels of hEPO protein, mRNA, and cytokine profiles are measured using ELISA-based techniques before and 2, 6, 12, 24, 48, 72, and 120 hours after each administration.

[7] = tested on: GFP mRNA expression in liver cells; experiment: Mouse liver immunohistochemistry (IHC) of GFP after GFP mRNA LNP; format: in vivo, CD-1 mouse; LDLR knockout mouse; conditions: i.v. 0.5 mpk; MC3: CD-1 mouse, 6h; Compound 4: LDLR knockout mouse, 8h
Experimental: FIG. 11 is a pair of images comparing the results of a mouse liver immunohistochemistry (IHC) using mRNA expressing green fluorescent protein (GFP) after administration of nanoparticle compositions containing Compound 4 and MC3.
FIG. 16 is a graph showing GFP levels in the livers of LDLR knockout mice at 30 min to 24 h after intravenous administration of an eGFP RNA in a lipid composition containing Compound 4. The liver GFP levels were determined via IHC. The square markers represent the number of GFP positive cells following administration of a dose of 0.1 mpk of the composition. The circular markers represent the number of GFP positive cells following administration of a dose of 0.5 mpk of the composition.

hEPO mRNA expression [8] = experiment: Expression of hEPO after intravenous administration to rats; format: in vivo; conditions: for hEPO expression in rats (FIG. 8): 2 mpk, i.v. (Graph A), in words; for hEPO (pg/mL) 3 hours / hEPO (pg/mL) 6 hours / hEPO (pg/mL) 24 hours: Table 6, rats i.v. 0.2 or 0.5 mg/kg
Experimental: PBS (phosphate buffered saline) is used as control.
Formulations were prepared according to Table 5 and included mRNA encoding hEPO.
[…] After the 48 hour time point, livers and spleens were harvested and frozen.

LDL-c = experiment: LDL (LDL-c) levels in LDLr−/− mice after mRNA encoding the LDL receptor; format: in vivo, LDLR knockout mice; conditions: Compound 11 at 0.5 and 1 mpk
rats = experiment: Tolerability / toxicity in rats dosed i.v. with hEPO mRNA LNP; format: in vivo; conditions: 2 mg/kg dose
[9] = tested on: luciferase (Luc) mRNA expression; experiment: Expression of Luc, bioluminescence (total flux) after intravenous administration to mice; format: in vivo
Experimental: In order to monitor how effectively various nanoparticle compositions deliver therapeutic and/or prophylactic agents to targeted cells, different nanoparticle compositions including a particular therapeutic and/or prophylactic agent (for example, a modified or naturally occurring RNA such as an mRNA) are prepared and administered to rodent populations. Mice are intravenously, intramuscularly, intraarterially, or intratumorally administered a single dose including a nanoparticle composition with a formulation such as those provided in Table 1. In some instances, mice may be made to inhale doses. Dose sizes may range from 0.001 mg/kg to 10 mg/kg, where 10 mg/kg describes a dose including 10 mg of a therapeutic and/or prophylactic agent in a nanoparticle composition for each 1 kg of body mass of the mouse. A control composition including PBS may also be employed.
Upon administration of nanoparticle compositions to mice, dose delivery profiles, dose responses, and toxicity of particular formulations and doses thereof can be measured by enzyme-linked immunosorbent assays (ELISA), bioluminescent imaging, or other methods. For nanoparticle compositions including mRNA, time courses of protein expression can also be evaluated. Samples collected from the rodents for evaluation may include blood, sera, and tissue (for example, muscle tissue from the site of an intramuscular injection and internal tissue); sample collection may involve sacrifice of the animals.
The efficacy of the nanoparticle compositions presented in Tables 1, la, 17-1, 19-1, 20-1 and 21-1 was evaluated with a bioluminescence study. Formulations were administered intravenously to mice (n=6) at a dosage of 0.5 mg/kg (mpk) and bioluminescence measured at 3, 6, and 24 hour time points. The standard MC3 formulation and a PBS control were evaluated for comparison.

[10] = tested on: luciferase (Luc) mRNA expression; experiment: Expression of Luc in different organs (liver, lung, spleen, femur) 6 hours after intravenous administration; format: in vivo; conditions: mice i.v. 0.5 mpk, 0.5 mg/kg
Experimental: The efficacy of the nanoparticle compositions presented in Tables 1, la, 17-1, 19-1, 20-1 and 21-1 was further evaluated by measuring the expression of modified luciferase in the liver, lung, spleen, and femur upon administration of a given composition. Formulations were administered intravenously to mice (n=3) at a dosage of 0.5 mpk and bioluminescence measured after 6 hours. The standard MC3 formulation and a PBS control were also tested.

Structure (SMILES): CCCCCCCCCCCCN(CCCCCCCCCCCC)CCN(CCCCCCCCCCCC)CC(=O)N1CCN(C(=O)CN(CCCCCCCCCCCC)CCCCCCCCCCCC)CC1 [Compound 11, 2-(Didodecylamino)-1-(4-(N-(2-(didodecylamino)ethyl)-N-dodecylglycyl)piperazin-1-yl)ethan-1-one]
PDI ([2]; Table 1): 0.099
hEPO expression in rats (FIG. 8) (hEPO mRNA expression [8]): comparable to MC3
Lipid/MC3 Luc CD-1 (mice) [3]: 1.03
LDL-c levels in LDLR knockout mice (FIG. 9B) (LDL-c): found to drop
Tolerability / toxicity in rats (FIG. 8) (rats): improved tolerability as compared to KL22

Structure (SMILES): CCCCCCCCCCCCN(CCCCCCCCCCCC)CCN(CCCCCCCCCCCC)CCN1CCN(CCN(CCCCCCCCC)CCCCCCCCC)CC1 [Compound 23, N^1-(2-(4-(2-(Dinonylamino)ethyl)piperazin-1-yl)ethyl)-N^1,N^2,N^2 tridodecylethane-1,2-diamine]
PDI ([2]; Table 1): 0.058
Luc expression in mice compared with MC3 (Table 7a) ([9]; mice, in words): several fold higher
hEPO (pg/mL) 3 hours (hEPO mRNA expression [8]; DOPE formulation of Table 5): 249213 pg/mL
hEPO (pg/mL) 6 hours (hEPO mRNA expression [8]; DOPE formulation of Table 5): 275440 pg/mL
hEPO (pg/mL) 24 hours (hEPO mRNA expression [8]; DOPE formulation of Table 5): 120104 pg/mL
hEPO (pg/mL) 3 hours (hEPO mRNA expression [8]; DSPC formulation of Table 5): 86627 pg/mL
hEPO (pg/mL) 6 hours (hEPO mRNA expression [8]; DSPC formulation of Table 5): 71360 pg/mL
hEPO (pg/mL) 24 hours (hEPO mRNA expression [8]; DSPC formulation of Table 5): 29008 pg/mL
Tolerability / toxicity in rats (FIG. 8) (rats): toxic

Structure (SMILES): CCCCCCCCCCCCN(CCCCCCCCCCCC)CCN(CCCCCCCCCCCC)CCN1CCN(CCN(CCCCCCCCCCCC)CCCCCCCCCCCC)CC1 [KL22, N1-[2-(didodecylamino)ethyl]-N1,N4,N4-tridodecyl-1,4-piperazinediethanamine, reference compound]
hEPO expression in rats (FIG. 8) (hEPO mRNA expression [8]): do not express hEPO in rats
Lipid/KL22 AUC LDLr−/− mice 0.5 mpk, LDLr [4]: 1
Tolerability / toxicity in rats (FIG. 8) (rats): toxic

Second part, led by results:

EE (%) ([1]; Table 1, marked *: lipid:DSPC:Chol:PEG-DMG 50:10:38.5:1.5): 96%
Structure (SMILES): CCCCCCCCCCCCN(CCCCCCCCCCCC)CCN1CCN(C(=O)CN(CCCCCCCCCCCC)CCN(CCCCCCCCCCCC)CCCCCCCCCCCC)CC1 [Compound 2, 2-((2-(Didodecylamino)ethyl)(dodecyl)amino)-1-(4-(2-(didodecylamino)ethyl)piperazin-1-yl)ethan-1-one]

PDI ([2]; Table 1): 0.120
% dose remaining Rat liver (48 h) [5]: 37.82%
Structure (SMILES): CCCCCCCCCN(CCCCCCCCC)CCN(CCCCCCCCC)CC(=O)N1CCN(C(=O)CN(CCCCCCCCC)CCCCCCCCC)CC1 [Compound 4, 2-(Dinonylamino)-1-(4-(N-(2-(dinonylamino)ethyl)-N-nonylglycyl)piperazin-1-yl)ethan-1-one]
Lipid/MC3 AUC CD-1 mice 0.5 mpk [3]: 3.70
Lipid/KL22 AUC LDLr−/− mice 0.5 mpk, LDLr [4]: 2.03
hEPO expression compared to MC3 (FIG. 10) (hEPO mRNA expression [6]): 3 fold
GFP protein expression in liver cell types (IHC, FIG. 11) [7]: less protein expression in Kupffer cells

Size (nm) ([2]; Table 1, lipid:DOPE:Chol:PEG-DMG 40:20:38.5:1.5, Luc mRNA, MC3 standard formulation): 90.0 nm
EE (%) ([1]; Table 1, DOPE 40:20:38.5:1.5, Luc mRNA): 97.0%
Structure (SMILES): CCCCC/C=C\CCCCCN(CCCCC/C=C\CCCCC)CCN1CCN(CCN(CCCCCCCCCCCC)CCN(CCCCCCCCCCCC)CCCCCCCCCCCC)CC1 [Compound 25, N^1-(2-(4-(2-(Di((Z)-dodec-6-en-1-yl)amino)ethyl)piperazin-1-yl)ethyl)-N^1,N^2,N^2-tridodecylethane-1,2-diamine]

Size (nm) ([2]; Table 20-1): 84.0 nm
% dose remaining Rat liver (48 h) [5]: 43.11%
Structure (SMILES): CCCCCC=CCC=CCCCCCCCCC(CCCCCCCCC=CCC=CCCCCC)OC(=O)CCCN(C)C (centres unmarked) [MC3, heptatriaconta-6,9,28,31-tetraen-19-yl 4-(dimethylamino)butanoate, reference compound]
Total flux (Luc expression), comparison in words over the time points of the table named ([9]; mice i.v. 0.5 mg/kg, 3, 6, 24 hours, 0.5 mg/kg): highest total flux; also recorded: highest luciferase expression
Total flux in organs, comparison in words over the organs of the table named [10]: highest total flux; also recorded: highest expression in each organ
hEPO expression at each time point, comparison in words (Table 6) (hEPO mRNA expression [8]; rats i.v., 3, 6, 24 hours): highest hEPO expression
Lipid/MC3 Luc CD-1 (mice) [3]: 1
Lipid/MC3 AUC CD-1 mice 0.5 mpk [3]: 1
Lipid/KL22 AUC LDLr−/− mice 0.5 mpk, LDLr [4]: 0.15
GFP protein expression in liver cell types (IHC, FIG. 11) [7]: observed in both hepatocytes and Kupffer cells
